# Assays:
# Assay in all cases: relative viability (nuclei count vs DMSO), 5 days (fraction); higher = more cells survive
# 201T = tested on: 201T
# Method in brief: (§1)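 Nuclei were stained with Hoechst during a one-step fixation (final 0.05% Triton X-100, 1% formaldehyde, 1 ug/ml Hoechst) carried out 5 days after dosing, then counted on 4× images. The cells, lung cancer lines in 1536-well plates, had been dosed by pin tool the day after seeding with one drug alone or a fixed anchor-drug dose plus five library-drug doses (not always all listed) in √10 steps. Relative viability is the nuclei count in treated wells divided by that in vehicle wells, and each value is the median of duplicate plates.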
# BEN = tested on: BEN
# Method in brief: as §1
# CAL-12T = tested on: CAL-12T
# Method in brief: as §1
# HCC-44 = tested on: HCC-44
# Method in brief: as §1
# HCC-827 = tested on: HCC-827
# Method in brief: as §1
# HOP-62 = tested on: HOP-62
# Method in brief: as §1
# LCLC-103H = tested on: LCLC-103H
# Method in brief: as §1
# LCLC-97TM1 = tested on: LCLC-97TM1
# Method in brief: as §1
# LXF-289 = tested on: LXF-289
# Method in brief: as §1
# NCI-H1395 = tested on: NCI-H1395
# Method in brief: as §1
# NCI-H1437 = tested on: NCI-H1437
# Method in brief: as §1
# NCI-H1650 = tested on: NCI-H1650
# Method in brief: as §1
# NCI-H1793 = tested on: NCI-H1793
# Method in brief: as §1
# NCI-H1944 = tested on: NCI-H1944
# Method in brief: as §1
# NCI-H2087 = tested on: NCI-H2087
# Method in brief: as §1
# NCI-H2228 = tested on: NCI-H2228
# Method in brief: as §1
# NCI-H2405 = tested on: NCI-H2405
# Method in brief: as §1
# NCI-H3122 = tested on: NCI-H3122
# Method in brief: as §1
# NCI-H322M = tested on: NCI-H322M
# Method in brief: as §1
# NCI-H647 = tested on: NCI-H647
# Method in brief: as §1
# NCI-H727 = tested on: NCI-H727
# Method in brief: as §1
# RERF-LC-KJ = tested on: RERF-LC-KJ
# Method in brief: as §1
# SK-LU-1 = tested on: SK-LU-1
# Method in brief: as §1
smiles,measurement,setting,value
CC1(C)CCC(c2ccc(Cl)cc2)=C(CN2CCN(c3ccc(C(=O)NS(=O)(=O)c4ccc(N[C@H](CCN5CCOCC5)CSc5ccccc5)c(S(=O)(=O)C(F)(F)F)c4)cc3)CC2)C1 [Navitoclax] + N=C(N)NC(=N)NCCc1ccccc1 [Phenformin] (partner 250 µM),relative viability,201T; first compound 0.005 µM,0.447
same,relative viability,201T; first compound 0.01581 µM,0.458
same,relative viability,201T; first compound 0.05 µM,0.456
same,relative viability,201T; first compound 0.1581 µM,0.438
same,relative viability,201T; first compound 0.5 µM,0.492
same,relative viability,BEN; first compound 0.005 µM,0.246
same,relative viability,BEN; first compound 0.01581 µM,0.265
same,relative viability,BEN; first compound 0.05 µM,0.248
same,relative viability,BEN; first compound 0.1581 µM,0.294
same,relative viability,BEN; first compound 0.5 µM,0.232
same,relative viability,CAL-12T; first compound 0.005 µM,0.527
same,relative viability,CAL-12T; first compound 0.01581 µM,0.655
same,relative viability,CAL-12T; first compound 0.05 µM,0.6
same,relative viability,CAL-12T; first compound 0.1581 µM,0.503
same,relative viability,CAL-12T; first compound 0.5 µM,0.582
same,relative viability,HCC-44; first compound 0.005 µM,0.173
same,relative viability,HCC-44; first compound 0.01581 µM,0.184
same,relative viability,HCC-44; first compound 0.05 µM,0.185
same,relative viability,HCC-44; first compound 0.1581 µM,0.131
same,relative viability,HCC-44; first compound 0.5 µM,0.197
same,relative viability,HCC-827; first compound 0.005 µM,0.404
same,relative viability,HCC-827; first compound 0.01581 µM,0.434
same,relative viability,HCC-827; first compound 0.05 µM,0.355
same,relative viability,HCC-827; first compound 0.1581 µM,0.396
same,relative viability,HCC-827; first compound 0.5 µM,0.382
same,relative viability,HOP-62; first compound 0.005 µM,0.639
same,relative viability,HOP-62; first compound 0.01581 µM,0.673
same,relative viability,HOP-62; first compound 0.05 µM,0.65
same,relative viability,HOP-62; first compound 0.1581 µM,0.669
same,relative viability,HOP-62; first compound 0.5 µM,0.702
same,relative viability,LCLC-103H; first compound 0.005 µM,0.342
same,relative viability,LCLC-103H; first compound 0.01581 µM,0.359
same,relative viability,LCLC-103H; first compound 0.05 µM,0.314
same,relative viability,LCLC-103H; first compound 0.1581 µM,0.322
same,relative viability,LCLC-103H; first compound 0.5 µM,0.338
same,relative viability,LCLC-97TM1; first compound 0.005 µM,0.447
same,relative viability,LCLC-97TM1; first compound 0.01581 µM,0.504
same,relative viability,LCLC-97TM1; first compound 0.05 µM,0.403
same,relative viability,LCLC-97TM1; first compound 0.1581 µM,0.477
same,relative viability,LCLC-97TM1; first compound 0.5 µM,0.507
same,relative viability,LXF-289; first compound 0.005 µM,0.524
same,relative viability,LXF-289; first compound 0.01581 µM,0.531
same,relative viability,LXF-289; first compound 0.05 µM,0.498
same,relative viability,LXF-289; first compound 0.1581 µM,0.506
same,relative viability,LXF-289; first compound 0.5 µM,0.5
same,relative viability,NCI-H1395; first compound 0.005 µM,0.461
same,relative viability,NCI-H1395; first compound 0.01581 µM,0.501
same,relative viability,NCI-H1395; first compound 0.05 µM,0.451
same,relative viability,NCI-H1395; first compound 0.1581 µM,0.455
same,relative viability,NCI-H1395; first compound 0.5 µM,0.497
same,relative viability,NCI-H1437; first compound 0.005 µM,0.269
same,relative viability,NCI-H1437; first compound 0.01581 µM,0.333
same,relative viability,NCI-H1437; first compound 0.05 µM,0.334
same,relative viability,NCI-H1437; first compound 0.1581 µM,0.314
same,relative viability,NCI-H1437; first compound 0.5 µM,0.41
same,relative viability,NCI-H1650; first compound 0.005 µM,0.358
same,relative viability,NCI-H1650; first compound 0.01581 µM,0.606
same,relative viability,NCI-H1650; first compound 0.05 µM,0.404
same,relative viability,NCI-H1650; first compound 0.1581 µM,0.36
same,relative viability,NCI-H1650; first compound 0.5 µM,0.313
same,relative viability,NCI-H1793; first compound 0.005 µM,0.527
same,relative viability,NCI-H1793; first compound 0.01581 µM,0.445
same,relative viability,NCI-H1793; first compound 0.1581 µM,0.309
same,relative viability,NCI-H1793; first compound 0.5 µM,0.313
same,relative viability,NCI-H1944; first compound 0.005 µM,0.183
same,relative viability,NCI-H1944; first compound 0.01581 µM,0.191
same,relative viability,NCI-H1944; first compound 0.05 µM,0.182
same,relative viability,NCI-H1944; first compound 0.1581 µM,0.211
same,relative viability,NCI-H1944; first compound 0.5 µM,0.146
same,relative viability,NCI-H2087; first compound 0.005 µM,0.475
same,relative viability,NCI-H2087; first compound 0.01581 µM,0.452
same,relative viability,NCI-H2087; first compound 0.1581 µM,0.407
same,relative viability,NCI-H2087; first compound 0.5 µM,0.428
same,relative viability,NCI-H2228; first compound 0.005 µM,0.35
same,relative viability,NCI-H2228; first compound 0.01581 µM,0.385
same,relative viability,NCI-H2228; first compound 0.1581 µM,0.276
same,relative viability,NCI-H2228; first compound 0.5 µM,0.418
same,relative viability,NCI-H2405; first compound 0.005 µM,0.413
same,relative viability,NCI-H2405; first compound 0.01581 µM,0.44
same,relative viability,NCI-H2405; first compound 0.05 µM,0.376
same,relative viability,NCI-H2405; first compound 0.1581 µM,0.4
same,relative viability,NCI-H2405; first compound 0.5 µM,0.303
same,relative viability,NCI-H3122; first compound 0.005 µM,0.402
same,relative viability,NCI-H3122; first compound 0.01581 µM,0.423
same,relative viability,NCI-H3122; first compound 0.05 µM,0.306
same,relative viability,NCI-H3122; first compound 0.1581 µM,0.348
same,relative viability,NCI-H3122; first compound 0.5 µM,0.391
same,relative viability,NCI-H322M; first compound 0.005 µM,0.805
same,relative viability,NCI-H322M; first compound 0.01581 µM,0.923
same,relative viability,NCI-H322M; first compound 0.05 µM,0.776
same,relative viability,NCI-H322M; first compound 0.1581 µM,0.848
same,relative viability,NCI-H322M; first compound 0.5 µM,0.954
same,relative viability,NCI-H647; first compound 0.005 µM,0.536
same,relative viability,NCI-H647; first compound 0.01581 µM,0.488
same,relative viability,NCI-H647; first compound 0.05 µM,0.651
same,relative viability,NCI-H647; first compound 0.1581 µM,0.323
same,relative viability,NCI-H647; first compound 0.5 µM,0.445
same,relative viability,NCI-H727; first compound 0.01581 µM,0.804
same,relative viability,NCI-H727; first compound 0.1581 µM,0.479
same,relative viability,NCI-H727; first compound 0.5 µM,0.394
same,relative viability,RERF-LC-KJ; first compound 0.005 µM,0.41
same,relative viability,RERF-LC-KJ; first compound 0.01581 µM,0.353
same,relative viability,RERF-LC-KJ; first compound 0.05 µM,0.428
same,relative viability,RERF-LC-KJ; first compound 0.1581 µM,0.381
same,relative viability,RERF-LC-KJ; first compound 0.5 µM,0.437
same,relative viability,SK-LU-1; first compound 0.005 µM,0.552
same,relative viability,SK-LU-1; first compound 0.01581 µM,0.608
same,relative viability,SK-LU-1; first compound 0.05 µM,0.501
same,relative viability,SK-LU-1; first compound 0.1581 µM,0.463
same,relative viability,SK-LU-1; first compound 0.5 µM,0.513
